Measurements: PubChem BioAssay (NCI)
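96-well plates; 48 h exposure; 5 concentrations. Endpoints by linear interpolation between flanking doses. Not reached: highest tested concentration assigned. Here, GI50 denotes the concentration required for 50% inhibition of growth. TGI: total growth inhibition.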

Assays:
Experiment in all cases: NCI tumour cell line growth inhibition, 48 h
DU-145 prostate = system: DU-145 prostate
RXF 393 renal = system: RXF 393 renal
SF-295 CNS = system: SF-295 CNS
OVCAR-4 ovarian = system: OVCAR-4 ovarian
COLO 205 colon = system: COLO 205 colon
UACC-257 melanoma = system: UACC-257 melanoma
U251 CNS = system: U251 CNS
NCI/ADR-RES ovarian = system: NCI/ADR-RES ovarian
NCI-H522 lung = system: NCI-H522 lung
HOP-62 NSCLC = system: HOP-62 NSCLC
RPMI-8226 leukemia = system: RPMI-8226 leukemia
CCRF-CEM leukemia = system: CCRF-CEM leukemia
HCC-2998 colon = system: HCC-2998 colon
SK-MEL-28 melanoma = system: SK-MEL-28 melanoma
MCF7 breast = system: MCF7 breast
M14 melanoma = system: M14 melanoma
OVCAR-5 ovarian = system: OVCAR-5 ovarian
TK-10 renal = system: TK-10 renal
ACHN renal = system: ACHN renal
SF-268 CNS = system: SF-268 CNS
UACC-62 melanoma = system: UACC-62 melanoma
SK-MEL-5 melanoma = system: SK-MEL-5 melanoma
SW-620 colon = system: SW-620 colon
IGROV1 ovarian = system: IGROV1 ovarian
K-562 leukemia = system: K-562 leukemia
LOX IMVI melanoma = system: LOX IMVI melanoma
MOLT-4 leukemia = system: MOLT-4 leukemia
786-0 renal = system: 786-0 renal
CAKI-1 renal = system: CAKI-1 renal
OVCAR-3 ovarian = system: OVCAR-3 ovarian
KM12 colon = system: KM12 colon
SF-539 CNS = system: SF-539 CNS
SK-OV-3 ovarian = system: SK-OV-3 ovarian
HT29 colon = system: HT29 colon
OVCAR-8 ovarian = system: OVCAR-8 ovarian
HCT-15 colon = system: HCT-15 colon
PC-3 prostate = system: PC-3 prostate
A549 NSCLC = system: A549 NSCLC
SNB-75 CNS = system: SNB-75 CNS
BT-549 breast = system: BT-549 breast
T-47D breast = system: T-47D breast
SNB-19 CNS = system: SNB-19 CNS
NCI-H460 lung = system: NCI-H460 lung
MDA-MB-435 = system: MDA-MB-435
HS 578T breast = system: HS 578T breast
EKVX NSCLC = system: EKVX NSCLC
MDA-MB-231 breast = system: MDA-MB-231 breast
HCT-116 colon = system: HCT-116 colon
SN12C renal = system: SN12C renal
UO-31 renal = system: UO-31 renal
A498 renal = system: A498 renal
HL-60(TB) leukemia = system: HL-60(TB) leukemia
NCI-H226 lung = system: NCI-H226 lung
SK-MEL-2 melanoma = system: SK-MEL-2 melanoma
NCI-H23 lung = system: NCI-H23 lung
HOP-92 NSCLC = system: HOP-92 NSCLC

N#Cc1cc2c(cc1Cl)SC(=Nc1ccccc1)N(S(=O)(=O)c1ccc(Cl)cc1)S2(=O)=O
GI50 (DU-145 prostate): 16.6 µM | TGI (DU-145 prostate): 35.7 µM | GI50 (RXF 393 renal): 5.68 µM | TGI (RXF 393 renal): 30.1 µM | GI50 (SF-295 CNS): 22.5 µM | TGI (SF-295 CNS): 72.7 µM | GI50 (OVCAR-4 ovarian): 19 µM | TGI (OVCAR-4 ovarian): 42.2 µM | GI50 (COLO 205 colon): 32 µM | TGI (COLO 205 colon): > 100 µM | GI50 (UACC-257 melanoma): 18.6 µM | TGI (UACC-257 melanoma): 40.4 µM | GI50 (U251 CNS): 17.7 µM | TGI (U251 CNS): 36.6 µM | GI50 (NCI/ADR-RES ovarian): 18 µM | TGI (NCI/ADR-RES ovarian): 44.6 µM | GI50 (NCI-H522 lung): 3.29 µM | TGI (NCI-H522 lung): 17.3 µM | GI50 (HOP-62 NSCLC): 13.5 µM | TGI (HOP-62 NSCLC): 29.9 µM | GI50 (RPMI-8226 leukemia): 10.6 µM | TGI (RPMI-8226 leukemia): 51.7 µM | GI50 (CCRF-CEM leukemia): 20.6 µM | TGI (CCRF-CEM leukemia): 39.1 µM | GI50 (HCC-2998 colon): 17.8 µM | TGI (HCC-2998 colon): 33 µM | GI50 (SK-MEL-28 melanoma): 17.1 µM | TGI (SK-MEL-28 melanoma): 37.7 µM | GI50 (MCF7 breast): 14.8 µM | TGI (MCF7 breast): 37.6 µM | GI50 (M14 melanoma): 10 µM | TGI (M14 melanoma): 24.8 µM | GI50 (OVCAR-5 ovarian): 16.8 µM | TGI (OVCAR-5 ovarian): 32.9 µM | GI50 (TK-10 renal): 0.656 µM | TGI (TK-10 renal): 3.64 µM | GI50 (ACHN renal): 17.7 µM | TGI (ACHN renal): 33.2 µM | GI50 (SF-268 CNS): 16.9 µM | TGI (SF-268 CNS): 41.6 µM | GI50 (UACC-62 melanoma): 14.7 µM | TGI (UACC-62 melanoma): 29 µM | GI50 (SK-MEL-5 melanoma): 13.4 µM | TGI (SK-MEL-5 melanoma): 28.7 µM | GI50 (SW-620 colon): 17.4 µM | TGI (SW-620 colon): 39.5 µM | GI50 (IGROV1 ovarian): 5.56 µM | TGI (IGROV1 ovarian): 21.2 µM | GI50 (K-562 leukemia): 50.5 µM | TGI (K-562 leukemia): > 100 µM | GI50 (LOX IMVI melanoma): 10.8 µM | TGI (LOX IMVI melanoma): 28.8 µM | GI50 (MOLT-4 leukemia): 28.7 µM | TGI (MOLT-4 leukemia): > 100 µM | GI50 (786-0 renal): 14.2 µM | TGI (786-0 renal): 28.6 µM | GI50 (CAKI-1 renal): 12.3 µM | TGI (CAKI-1 renal): 27.2 µM | GI50 (OVCAR-3 ovarian): 4.95 µM | TGI (OVCAR-3 ovarian): 17.9 µM | GI50 (KM12 colon): 14 µM | TGI (KM12 colon): 28.1 µM | GI50 (SF-539 CNS): 19.8 µM | TGI (SF-539 CNS): 39.8 µM | GI50 (SK-OV-3 ovarian): 20 µM | TGI (SK-OV-3 ovarian): 40.8 µM | GI50 (HT29 colon): 31 µM | TGI (HT29 colon): > 100 µM | GI50 (OVCAR-8 ovarian): 18 µM | TGI (OVCAR-8 ovarian): 51 µM | GI50 (HCT-15 colon): 15.2 µM | TGI (HCT-15 colon): 33.6 µM | GI50 (PC-3 prostate): 17.5 µM | TGI (PC-3 prostate): 38.2 µM | GI50 (A549 NSCLC): 20.3 µM | TGI (A549 NSCLC): 54.5 µM | GI50 (SNB-75 CNS): 18.9 µM | TGI (SNB-75 CNS): 42.2 µM | GI50 (BT-549 breast): 13.4 µM | TGI (BT-549 breast): 30.4 µM | GI50 (T-47D breast): 19.9 µM | TGI (T-47D breast): 64.1 µM | GI50 (SNB-19 CNS): 35.5 µM | TGI (SNB-19 CNS): > 100 µM | GI50 (NCI-H460 lung): 20.8 µM | TGI (NCI-H460 lung): 53.5 µM | GI50 (MDA-MB-435): 13 µM | TGI (MDA-MB-435): 27.8 µM | GI50 (HS 578T breast): 21.6 µM | TGI (HS 578T breast): 57.8 µM | GI50 (EKVX NSCLC): 16.9 µM | TGI (EKVX NSCLC): 34.4 µM | GI50 (MDA-MB-231 breast): 14.5 µM | TGI (MDA-MB-231 breast): 34.5 µM | GI50 (HCT-116 colon): 3.78 µM | TGI (HCT-116 colon): 18 µM | GI50 (SN12C renal): 17.2 µM | TGI (SN12C renal): 37.1 µM | GI50 (UO-31 renal): 9.84 µM | TGI (UO-31 renal): 26.9 µM | GI50 (A498 renal): 16.4 µM | TGI (A498 renal): 32.8 µM | GI50 (HL-60(TB) leukemia): > 100 µM | TGI (HL-60(TB) leukemia): > 100 µM | GI50 (NCI-H226 lung): 17.7 µM | TGI (NCI-H226 lung): 42.9 µM | GI50 (SK-MEL-2 melanoma): 3.61 µM | TGI (SK-MEL-2 melanoma): 16.8 µM

O=C(NCCCCN(CCCNC(=O)C(F)(F)F)Cc1ccccc1)C(F)(F)F
TGI (DU-145 prostate): > 100 µM | TGI (RXF 393 renal): > 100 µM | TGI (SF-295 CNS): > 100 µM | TGI (OVCAR-4 ovarian): > 100 µM | TGI (COLO 205 colon): > 100 µM | TGI (UACC-257 melanoma): > 100 µM | TGI (U251 CNS): > 100 µM | TGI (NCI/ADR-RES ovarian): > 100 µM | TGI (NCI-H522 lung): > 100 µM | TGI (HOP-62 NSCLC): > 100 µM | TGI (RPMI-8226 leukemia): > 100 µM | TGI (CCRF-CEM leukemia): > 100 µM | TGI (HCC-2998 colon): > 100 µM | TGI (SK-MEL-28 melanoma): > 100 µM | TGI (MCF7 breast): > 100 µM | TGI (M14 melanoma): > 100 µM | TGI (OVCAR-5 ovarian): > 100 µM | TGI (TK-10 renal): > 100 µM | TGI (ACHN renal): > 100 µM | TGI (SF-268 CNS): > 100 µM | TGI (UACC-62 melanoma): > 100 µM | TGI (SK-MEL-5 melanoma): > 100 µM | TGI (SW-620 colon): > 100 µM | TGI (NCI-H23 lung): > 100 µM | TGI (IGROV1 ovarian): > 100 µM | TGI (K-562 leukemia): > 100 µM | TGI (MOLT-4 leukemia): > 100 µM | TGI (786-0 renal): > 100 µM | TGI (OVCAR-3 ovarian): > 100 µM | TGI (KM12 colon): > 100 µM | TGI (SF-539 CNS): > 100 µM | TGI (SK-OV-3 ovarian): > 100 µM | TGI (HT29 colon): > 100 µM | TGI (OVCAR-8 ovarian): > 100 µM | TGI (HCT-15 colon): > 100 µM | TGI (PC-3 prostate): > 100 µM | TGI (A549 NSCLC): > 100 µM | TGI (SNB-75 CNS): > 100 µM | TGI (BT-549 breast): > 100 µM | TGI (T-47D breast): > 100 µM | TGI (SNB-19 CNS): > 100 µM | TGI (NCI-H460 lung): > 100 µM | TGI (MDA-MB-435): > 100 µM | TGI (HS 578T breast): > 100 µM | TGI (EKVX NSCLC): > 100 µM | TGI (MDA-MB-231 breast): > 100 µM | TGI (HCT-116 colon): > 100 µM | TGI (HOP-92 NSCLC): > 100 µM | TGI (SN12C renal): > 100 µM | TGI (UO-31 renal): > 100 µM | TGI (A498 renal): > 100 µM | TGI (HL-60(TB) leukemia): > 100 µM | TGI (NCI-H226 lung): > 100 µM | TGI (SK-MEL-2 melanoma): > 100 µM
